Data on four compounds can be found in PMC8416862 (Clinical Pharmacokinetics, 2021).

Data set [1] in a line: Trial 2: plasma pharmacokinetics of single-dose furosemide and rosuvastatin. It counts as in vivo, healthy male and female subjects. As to conditions: single dose co-administered with oral semaglutide versus alone.
For data set [2] the following is noted: cited from earlier work.
Another data set concerns CYP enzymes. As to conditions: in vitro studies; cited from earlier work.
The test system of the next data set is drug transporters. As to conditions: in vitro studies; cited from earlier work.
For data set [3] the following is noted: co-administered with once-weekly subcutaneous semaglutide; cited from earlier work.

As to `NS(=O)(=O)c1cc(C(=O)O)c(NCc2ccco2)cc1Cl` [Furosemide, furosemide], in data set [1], the “decrease in the maximum concentration” value amounted to 34%.
With `CC(C)c1nc(N(C)S(C)(=O)=O)nc(-c2ccc(F)cc2)c1/C=C/[C@@H](O)C[C@@H](O)CC(=O)O` [Rosuvastatin, rosuvastatin], the “bioavailability, orally administered” value in data set [2] (oral administration) is listed as “approximately 20%”. Besides, in data set [1], the “increase in maximum concentration” value is given as 10% and the “increase in total exposure” value is on record as 41%.
On to `CC[C@H](C)[C@H](NC(=O)[C@H](Cc1ccccc1)NC(=O)[C@H](CCC(=O)O)NC(=O)[C@H](CCCCNC(=O)COCCOCCNC(=O)COCCOCCNC(=O)CC[C@H](NC(=O)CCCCCCCCCCCCCCCCC(=O)O)C(=O)O)NC(=O)[C@H](C)NC(=O)[C@H](C)NC(=O)[C@H](CCC(N)=O)NC(=O)CNC(=O)[C@H](CCC(=O)O)NC(=O)[C@H](CC(C)C)NC(=O)[C@H](Cc1ccc(O)cc1)NC(=O)[C@H](CO)NC(=O)[C@H](CO)NC(=O)[C@@H](NC(=O)[C@H](CC(=O)O)NC(=O)[C@H](CO)NC(=O)[C@@H](NC(=O)[C@H](Cc1ccccc1)NC(=O)[C@@H](NC(=O)CNC(=O)[C@H](CCC(=O)O)NC(=O)C(C)(C)NC(=O)[C@@H](N)Cc1cnc[nH]1)[C@@H](C)O)[C@@H](C)O)C(C)C)C(=O)N[C@@H](C)C(=O)N[C@@H](Cc1c[nH]c2ccccc12)C(=O)N[C@@H](CC(C)C)C(=O)N[C@H](C(=O)N[C@@H](CCCNC(=N)N)C(=O)NCC(=O)N[C@@H](CCCNC(=N)N)C(=O)NCC(=O)O)C(C)C` [Semaglutide, semaglutide], for which, in data set [2] (absorption, metabolism and excretion trial with subcutaneous semaglutide), the “elimination of intact semaglutide in urine” value was 3%. Besides, the “potential to inhibit or induce CYP enzymes” value in the data set with CYP enzymes is recorded as “very low potential”. Further, in the data set with drug transporters, the “potential to inhibit drug transporters” value was “very low potential”.
Turning to `C#C[C@]1(O)CC[C@H]2[C@@H]3CCC4=CC(=O)CC[C@@H]4[C@H]3CC[C@@]21CC` [levonorgestrel], the “increase in AUC” value in data set [3] is 20%.
